Measured values taken from patent publication US20250170130A1, “MODULATORS OF MYC FAMILY PROTO-ONCOGENE PROTEIN” (Nalo Therapeutics, priority 2022, published 2025).
Read-outs that look alike come from different tables or passages of the source.

What was measured:
[1] = target: T1, MycN (Homo sapiens, UniProt P04198); assay: Degradation of MycN protein in SK-N-BE(2) cells, JESS/Western blot of lysates; format: cell-based; settings: SKNBE2, 24 h; for Dmax at 0.5 µM: read-out: % Degradation of MycN (SKNBE2) 24 h, 0.5 μM; for Dmax at 1 µM: read-out: % Degradation of MycN (SKNBE2) 24 h, 1 μM; for Dmax at 3 µM: read-out: % Degradation of MycN (SKNBE2) 24 h, 3 μM; for Dmax at 6 µM: read-out: % Degradation of MycN (SKNBE2) 24 h, 6 μM
T1 construct: endogenous in cells; host or cells: SK-N-BE(2)
T1 sequence (P04198 1-464): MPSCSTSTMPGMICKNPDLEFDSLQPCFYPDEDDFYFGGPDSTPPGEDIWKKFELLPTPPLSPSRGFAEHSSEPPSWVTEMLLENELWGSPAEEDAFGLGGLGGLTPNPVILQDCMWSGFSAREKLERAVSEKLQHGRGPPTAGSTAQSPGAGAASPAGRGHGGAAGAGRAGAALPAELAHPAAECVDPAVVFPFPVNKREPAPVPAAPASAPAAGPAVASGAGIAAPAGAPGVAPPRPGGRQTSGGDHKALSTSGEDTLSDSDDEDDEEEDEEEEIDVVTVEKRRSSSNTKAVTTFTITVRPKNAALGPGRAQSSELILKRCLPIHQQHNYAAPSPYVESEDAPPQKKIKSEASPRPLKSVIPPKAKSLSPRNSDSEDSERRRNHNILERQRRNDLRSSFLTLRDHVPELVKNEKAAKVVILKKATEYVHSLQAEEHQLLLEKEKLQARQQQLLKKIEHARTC
Outline: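 SK-N-BE(2) adherent cells (5E5 per well of a 6 well dish) were grown 24 hrs, then exposed to compounds diluted 1 in 20 in media, with DMSO controls, for 24 hrs. Cells were scraped, pelleted, PBS washed and lysed in RIPA buffer cocktail; after BCA protein quantitation, n-myc was detected by chemiluminescence on JESS/Western blot with tubulin and GAPDH loading controls read in the near infra red channel.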

[2] = target: T2, MycC (Homo sapiens, UniProt P01106); assay: Degradation of MycC protein in L363 cells, JESS/Western blot of lysates; format: cell-based; settings: L-363, 24 h; for Dmax at 1 µM: read-out: % Degradation of MycC (L-363) 24 h, 1 μM; for Dmax at 3 µM: read-out: % Degradation of MycC (L-363) 24 h, 3 μM; for Dmax at 6 µM: read-out: % Degradation of MycC (L-363) 24 h, 6 μM; for Dmax at 0.5 µM: read-out: % Degradation of MycC (L-363) 24 h, 0.5 μM
T2 construct: endogenous in cells; host or cells: L363
T2 sequence (P01106 whole entry): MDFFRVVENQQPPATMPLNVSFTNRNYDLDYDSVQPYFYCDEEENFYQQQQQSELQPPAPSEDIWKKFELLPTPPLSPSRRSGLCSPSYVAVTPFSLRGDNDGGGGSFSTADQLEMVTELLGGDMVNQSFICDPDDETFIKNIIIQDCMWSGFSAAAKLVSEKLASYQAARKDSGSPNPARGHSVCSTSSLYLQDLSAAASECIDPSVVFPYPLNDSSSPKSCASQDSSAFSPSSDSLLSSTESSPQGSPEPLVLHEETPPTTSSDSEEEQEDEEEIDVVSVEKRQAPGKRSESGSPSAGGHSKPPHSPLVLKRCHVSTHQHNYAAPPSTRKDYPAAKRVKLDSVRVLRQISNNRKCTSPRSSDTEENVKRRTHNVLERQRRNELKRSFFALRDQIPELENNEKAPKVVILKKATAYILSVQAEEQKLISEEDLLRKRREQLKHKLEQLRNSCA
Outline: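 L363 suspension cells were seeded at 1E6 cells per well and exposed to compound (stock 10 mM in DMSO) for 24 hrs. Cells were collected, spun down, rinsed with PBS, lysed in RIPA buffer cocktail on ice, clarified and kept at −80 degrees. Lysate protein was quantified by BCA, and c-myc was measured on JESS by chemiluminescence with tubulin and GAPDH loading controls in the NIR channel.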

Dmax at 0.5 µM ([1]; SKNBE2 cells, 24 h, 0.5 μM) | Dmax at 1 µM ([1]; SKNBE2 cells, 24 h, 1 μM) | Dmax at 3 µM ([1]; SKNBE2 cells, 24 h, 3 μM) | Dmax at 6 µM ([1]; SKNBE2 cells, 24 h, 6 μM) | Dmax at 1 µM ([2]; L-363 cells, 24 h, 1 μM) | Dmax at 3 µM ([2]; L-363 cells, 24 h, 3 μM) | Dmax at 6 µM ([2]; L-363 cells, 24 h, 6 μM) | Dmax at 0.5 µM ([2]; L-363 cells, 24 h, 0.5 μM) | Structure (SMILES) | Dmax at 0.5 µM [1] | Dmax at 1 µM [1] | Dmax at 3 µM [1] | Dmax at 6 µM [1] | Dmax at 0.5 µM [2] | Dmax at 1 µM [2] | Dmax at 3 µM [2] | Dmax at 6 µM [2]
20 to 49% | 50 to 79% | 80 to 100% | 80 to 100% | < 20% | 50 to 79% | 80 to 100% |  | CNC[C@H]1CCN(c2nccc(Nc3cc(C4CCCC4)[nH]n3)n2)C1 [Compound 35, N-(5-cyclopentyl-1H-pyrazol-3-yl)-2-[(3R)-3-(methylaminomethyl)pyrrolidin-1-yl]pyrimidin-4-amine] |  |  |  |  |  |  |  | 
20 to 49% | < 20% | 80 to 100% | 80 to 100% | 20 to 49% | < 20% | 80 to 100% | < 20% | CNC[C@@H]1CCN(c2nccc(Nc3cc(C4CCCC4)[nH]n3)n2)C1 [Compound 36, N-(5-cyclopentyl-1H-pyrazol-3-yl)-2-[(3S)-3-(methylaminomethyl)pyrrolidin-1-yl]pyrimidin-4-amine] |  |  |  |  |  |  |  | 
20 to 49% | 20 to 49% | 50 to 79% | 80 to 100% | < 20% | < 20% |  |  | CNC[C@@H]1CCCN(c2nccc(Nc3cc(C4CC4)[nH]n3)n2)C1 [Compound 37, N-(5-cyclopropyl-1H-pyrazol-3-yl)-2-[(3S)-3-(methylaminomethyl)-1-piperidyl]pyrimidin-4-amine] |  |  |  |  |  |  |  | 
20 to 49% | 20 to 49% | 20 to 49% | 50 to 79% | < 20% | < 20% | < 20% | < 20% | CN1CC(C2CCN(c3nccc(Nc4cc(C5CC5)[nH]n4)n3)C2)C1 (stereo not shown) [Compound 38, N-(5-Cyclopropyl-1H-pyrazol-3-yl)-2-[3-(1-methylazetidin-3-yl)pyrrolidin-1-yl]pyrimidin-4-amine] |  |  |  |  |  |  |  | 
20 to 49% | 20 to 49% | 20 to 49% | 50 to 79% | < 20% | 20 to 49% | < 20% | 20 to 49% | CN1CC2(CCCN(c3nccc(Nc4cc(C5CC5)[nH]n4)n3)C2)C1 [Compound 43] |  |  |  |  |  |  |  | 
 | < 20% | 20 to 49% | 80 to 100% |  | < 20% | 80 to 100% |  | CN1CC2(CCN(c3nccc(Nc4cc(C5CC5)[nH]n4)n3)CC2)C1 [Compound 44, N-(5-Cyclopropyl-1H-pyrazol-3-yl)-2-(2-methyl-2,7-diazaspiro[3.5]nonan-7-yl)pyrimidin-4-amine] |  |  |  |  |  |  |  | 
80 to 100% | 80 to 100% | 80 to 100% | 80 to 100% | 80 to 100% | 80 to 100% | 80 to 100% | 80 to 100% | CNCC12CCC(C1)N(c1nccc(Nc3cc(C4CC4)[nH]n3)n1)C2 (stereo not shown) [Compound 45, N-(5-Cyclopropyl-1H-pyrazol-3-yl)-2-[4-(methylaminomethyl)-2-azabicyclo[2.2.1]heptan-2-yl]pyrimidin-4-amine] |  |  |  |  |  |  |  | 
< 20% | < 20% | < 20% | < 20% | 20 to 49% | < 20% | 20 to 49% |  | CN(C)CCCN(C)c1nccc(Nc2cc(C3CC3)[nH]n2)n1 [Compound 48, N^4-(5-cyclopropyl-1H-pyrazol-3-yl)-N^2-[3-(dimethylamino)propyl]-N^2-methyl-pyrimidine-2,4-diamine] |  |  |  |  |  |  |  | 
< 20% |  | < 20% | 20 to 49% | < 20% | 20 to 49% | 20 to 49% |  | c1cc(Nc2cc(C3CC3)[nH]n2)nc(N2CC(C3CNC3)C2)n1 [Compound 64, 2-[3-(Azetidin-3-yl)azetidin-1-yl]-N-(5-cyclopropyl-1H-pyrazol-3-yl)pyrimidin-4-amine] |  |  |  |  |  |  |  | 
< 20% | < 20% | 20 to 49% | 50 to 79% | < 20% | < 20% | 50 to 79% | < 20% | CN1CC(C2CN(c3nccc(Nc4cc(C5CCCC5)[nH]n4)n3)C2)C1 [Compound 65, N-(5-Cyclopentyl-1H-pyrazol-3-yl)-2-[3-(1-methylazetidin-3-yl)azetidin-1-yl]pyrimidin-4-amine] |  |  |  |  |  |  |  | 
 | 80 to 100% | 80 to 100% | 80 to 100% |  | 80 to 100% | 80 to 100% | < 20% | NCC12CC(C1)N(c1nccc(Nc3cc(C4CCCC4)[nH]n3)n1)C2 [Compound 66, 2-[4-(aminomethyl)-2-azabicyclo[2.1.1]hexan-2-yl]-N-(5-cyclopentyl-1H-pyrazol-3-yl)pyrimidin-4-amine] |  |  |  |  |  |  |  | 
 |  |  |  |  |  |  |  | COCCNCC12CC(C1)N(c1nccc(Nc3cc(C4CCCC4)[nH]n3)n1)C2 [Compound 67, N-(5-Cyclopentyl-1H-pyrazol-3-yl)-2-[4-[(2-methoxyethylamino)methyl]-2-azabicyclo[2.1.1]hexan-2-yl]pyrimidin-4-amine] | < 20% | 50 to 79% | 80 to 100% | 80 to 100% | < 20% | < 20% | 80 to 100% | 80 to 100%
< 20% | < 20% | 80 to 100% | 80 to 100% | < 20% | 80 to 100% | 80 to 100% | < 20% | CS(=O)(=O)CCNCC12CC(C1)N(c1nccc(Nc3cc(C4CCCC4)[nH]n3)n1)C2 [Compound 68, N-(5-Cyclopentyl-1H-pyrazol-3-yl)-2-[4-[(2-methylsulfonylethylamino)methyl]-2-azabicyclo[2.1.1]hexan-2-yl]pyrimidin-4-amine] |  |  |  |  |  |  |  | 
20 to 49% | 20 to 49% | 80 to 100% | 80 to 100% |  | 80 to 100% | 80 to 100% | < 20% | CC1(NCC23CC(C2)N(c2nccc(Nc4cc(C5CCCC5)[nH]n4)n2)C3)COC1 [Compound 69, N-(5-Cyclopentyl-1H-pyrazol-3-yl)-2-[4-[[(3-methyloxetan-3-yl)amino]methyl]-2-azabicyclo[2.1.1]hexan-2-yl]pyrimidin-4-amine] |  |  |  |  |  |  |  | 

Structure (SMILES) | Dmax at 0.5 µM ([1]; SKNBE2 cells, 24 h, 0.5 μM) | Dmax at 1 µM ([1]; SKNBE2 cells, 24 h, 1 μM) | Dmax at 3 µM ([1]; SKNBE2 cells, 24 h, 3 μM) | Dmax at 6 µM ([1]; SKNBE2 cells, 24 h, 6 μM) | Dmax at 1 µM ([2]; L-363 cells, 24 h, 1 μM) | Dmax at 3 µM ([2]; L-363 cells, 24 h, 3 μM) | Dmax at 6 µM ([2]; L-363 cells, 24 h, 6 μM) | Dmax at 0.5 µM ([2]; L-363 cells, 24 h, 0.5 μM) | Dmax at 0.5 µM [1] | Dmax at 1 µM [1] | Dmax at 3 µM [1] | Dmax at 6 µM [1] | Dmax at 0.5 µM [2] | Dmax at 1 µM [2] | Dmax at 3 µM [2] | Dmax at 6 µM [2]
CN1C[C@H]2CN(c3nccc(Nc4cc(C5CC5)[nH]n4)n3)C[C@H]21 [Compound 40, N-(5-Cyclopropyl-1H-pyrazol-3-yl)-2-[(1S,5S)-6-methyl-3,6-diazabicyclo[3.2.0]heptan-3-yl]pyrimidin-4-amine] |  |  | < 20% | < 20% | < 20% | < 20% |  | < 20% |  |  |  |  |  |  |  | 
c1cc(Nc2cc(C3CC3)[nH]n2)nc(N2CCC3(CCNC3)C2)n1 (stereo not shown) [Compound 42, N-(5-Cyclopropyl-1H-pyrazol-3-yl)-2-(2,7-diazaspiro[4.4]nonan-2-yl)pyrimidin-4-amine] | 20 to 49% | 50 to 79% | 50 to 79% | 80 to 100% | < 20% |  | 80 to 100% | < 20% |  |  |  |  |  |  |  | 
c1cc(Nc2cc(C3CC3)[nH]n2)nc(N2C[C@H]3CN[C@H]3C2)n1 [Compound 53, N-(5-Cyclopropyl-1H-pyrazol-3-yl)-2-[(1R,5R)-3,6-diazabicyclo[3.2.0]heptan-3-yl]pyrimidin-4-amine] |  |  |  | < 20% |  | 20 to 49% | < 20% |  |  |  |  |  |  |  |  | 
